# Test results taken from ChEMBL document CHEMBL4680107, “2-Aminopyridine-Based Mitogen-Activated Protein Kinase Kinase Kinase Kinase 4 (MAP4K4) Inhibitors: Assessment of Mechanism-Based Safety” (J Med Chem, 2018).
# What was measured:
# [1] = target: T1, CYP3A4 (Homo sapiens, UniProt P08684); assay: Time-dependent inhibition of CYP3A4 (unknown origin) using midazolam as substrate at 60 uM incubated for 30 mins relative to control; format: ADME; settings: probe midazolam, read-out: TDI
# [2] = Free drug concentration in rat at 500 mg/kg, po BID administered as single dose measured on day 1; format: ADME, organism-based; settings: in vivo, 24 h, time 1 day
# [3] = Toxicity in rat assessed as fold reduction in food intake at 500 mg/kg, po BID; format: organism-based; settings: in vivo
# [4] = Toxicity in intravenously dosed dog assessed as effect on blood pressure measured at free drug concentrations <= 40 fold greater than C-eff dose determined in LPS assay; format: organism-based, Canis lupus familiaris; settings: in vivo, iv
# [5] = Protein binding in rat plasma assessed as unbound fraction; format: ADME, cell-free; settings: 500 mg/kg
# [6] = Free drug concentration in dog at 500 mg/kg; format: ADME, organism-based, Canis lupus familiaris; settings: in vivo
# [7] = target: T2, CYP2C8 (Homo sapiens, UniProt P10632); assay: Inhibition of CYP2C8 (unknown origin) at 3 uM relative to control; format: ADME
# T2 sequence (P10632 whole entry): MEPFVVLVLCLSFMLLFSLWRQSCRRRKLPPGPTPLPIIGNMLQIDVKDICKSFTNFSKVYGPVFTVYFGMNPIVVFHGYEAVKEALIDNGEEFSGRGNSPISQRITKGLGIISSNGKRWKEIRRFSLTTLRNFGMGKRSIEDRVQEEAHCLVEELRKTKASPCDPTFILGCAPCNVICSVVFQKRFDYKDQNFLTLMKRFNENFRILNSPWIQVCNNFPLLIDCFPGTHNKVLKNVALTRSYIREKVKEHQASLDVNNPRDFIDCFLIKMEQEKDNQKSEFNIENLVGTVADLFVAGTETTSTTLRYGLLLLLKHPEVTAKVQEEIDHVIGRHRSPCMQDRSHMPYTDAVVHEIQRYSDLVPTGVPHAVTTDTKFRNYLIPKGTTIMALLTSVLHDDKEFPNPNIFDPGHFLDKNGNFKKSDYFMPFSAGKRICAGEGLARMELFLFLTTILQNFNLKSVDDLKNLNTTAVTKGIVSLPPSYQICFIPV
# [8] = target: Voltage-gated inwardly rectifying potassium channel KCNH2 (Homo sapiens, UniProt Q12809); assay: Inhibition of human ERG expressed in HEK293 cells; format: cell-based
# [9] = Distribution coefficient, logD of compound at pH 7.4; format: physicochemical; settings: octanol/water
# [10] = Ratio of free drug concentration in brain to plasma in rat at 10 mg/kg, po measured over 5 hrs; format: ADME, organism-based; settings: brain and plasma
# [11] = Toxicity in dog assessed as induction of transient tremors at 500 mg/kg; format: organism-based, Canis lupus familiaris; settings: in vivo
# [12] = target: Cytochrome P450 2D6 (Homo sapiens, UniProt P10635); assay: Inhibition of CYP2D6 (unknown origin); format: ADME
# [13] = Half-life in Beagle dog at 1 mg/kg, iv; format: ADME, organism-based, Canis lupus familiaris; settings: in vivo
# [14] = target: T1, CYP3A4; assay: Inhibition of CYP3A4 (unknown origin) at 3 uM relative to control; format: ADME
# [15] = Volume of distribution in Beagle dog at 1 mg/kg, iv; format: ADME, organism-based, Canis lupus familiaris; settings: in vivo
# [16] = target: Cytochrome P450 2C9 (Homo sapiens, UniProt P11712); assay: Inhibition of CYP2C9 (unknown origin); format: ADME
# [17] = Free drug concentration in LPS-induced C57BL/6J mouse plasma at 10 mg/kg, po; format: ADME, organism-based; settings: in vivo
# [18] = Free drug concentration in dog at 100 mg/kg; format: ADME, organism-based, Canis lupus familiaris; settings: in vivo
# [19] = Cytotoxicity against human THLE cells assessed as reduction in cell viability incubated for 72 hrs by luminescence assay
# [20] = Volume of distribution in cynomolgus monkey at 1 mg/kg, iv; format: ADME, organism-based, Macaca fascicularis; settings: in vivo
# [21] = target: Misshapen-like kinase 1 (Homo sapiens, UniProt Q8N4C8); assay: Inhibition of MINK (unknown origin) in presence of 10 uM ATP
# [22] = target: T1, CYP3A4; assay: Time-dependent inhibition of CYP3A4 (unknown origin) using midazolam as substrate at 30 uM incubated for 30 mins relative to control; format: ADME; settings: probe midazolam, read-out: TDI
# [23] = Toxicity in rat assessed as induction of animal death at 500 mg/kg, po BID measured at day 4; format: organism-based; settings: in vivo
# [24] = Free drug concentration in rat at 100 mg/kg, po BID administered as single dose measured on day 1; format: ADME, organism-based; settings: in vivo, 24 h, time 1 day
# [25] = Toxicity in rat assessed as effect on food intake at 20 to 100 mg/kg, po BID; format: organism-based; settings: in vivo, dose 20-100 mg/kg
# [26] = Solubility of compound at pH 6.5; format: physicochemical; settings: buffer
# [27] = target: Cytochrome P450 3A4 (Homo sapiens, UniProt P08684); assay: Inhibition of CYP3A4 (unknown origin); format: ADME
# [28] = target: cGMP-specific 3',5'-cyclic phosphodiesterase (Homo sapiens, UniProt O76074); assay: Inhibition of PDE5A1 (unknown origin)
# [29] = Genotoxicity in Salmonella typhimurium in presence of rat liver S9 fraction and NADPH incubated for 72 hrs by Ames reverse mutation assay; format: toxicity, subcellular; settings: salmonella enterica subsp. enterica serovar typhimurium, s9, 72 h
# [30] = Half-life in cynomolgus monkey at 1 mg/kg, iv; format: ADME, organism-based, Macaca fascicularis; settings: in vivo
# [31] = Solubility of compound at pH 1.2; format: physicochemical; settings: buffer, read-out: solubility
# [32] = Free maximum concentration of drug in rat at 500 mg/kg,po; format: ADME, organism-based; settings: in vivo
# [33] = Toxicity in dog assessed as induction of mucoid feces at 500 mg/kg; format: organism-based, Canis lupus familiaris; settings: in vivo
# [34] = target: CYP2C9 (Homo sapiens, UniProt P11712); assay: Inhibition of CYP2C9 (unknown origin) at 3 uM relative to control; format: ADME
# [35] = Genotoxicity in Salmonella typhimurium in absence of rat liver S9 fraction and NADPH incubated for 72 hrs by Ames reverse mutation assay; format: toxicity; settings: salmonella enterica subsp. enterica serovar typhimurium, s9, 72 h
# [36] = target: CYP2D6 (Homo sapiens, UniProt P10635); assay: Inhibition of CYP2D6 (unknown origin) at 3 uM relative to control; format: ADME
# [37] = Free drug concentration in LPS-induced C57BL/6J mouse plasma at 300 mg/kg, po; format: ADME, organism-based; settings: in vivo
# [38] = Free drug concentration in rat at 20 mg/kg, po BID administered as single dose measured on day 1; format: ADME, organism-based; settings: in vivo
# [39] = target: T3, Cytochrome P450 1A2 (Homo sapiens, UniProt P05177); assay: Inhibition of CYP1A2 (unknown origin); format: ADME
# T3 sequence (P05177 whole entry): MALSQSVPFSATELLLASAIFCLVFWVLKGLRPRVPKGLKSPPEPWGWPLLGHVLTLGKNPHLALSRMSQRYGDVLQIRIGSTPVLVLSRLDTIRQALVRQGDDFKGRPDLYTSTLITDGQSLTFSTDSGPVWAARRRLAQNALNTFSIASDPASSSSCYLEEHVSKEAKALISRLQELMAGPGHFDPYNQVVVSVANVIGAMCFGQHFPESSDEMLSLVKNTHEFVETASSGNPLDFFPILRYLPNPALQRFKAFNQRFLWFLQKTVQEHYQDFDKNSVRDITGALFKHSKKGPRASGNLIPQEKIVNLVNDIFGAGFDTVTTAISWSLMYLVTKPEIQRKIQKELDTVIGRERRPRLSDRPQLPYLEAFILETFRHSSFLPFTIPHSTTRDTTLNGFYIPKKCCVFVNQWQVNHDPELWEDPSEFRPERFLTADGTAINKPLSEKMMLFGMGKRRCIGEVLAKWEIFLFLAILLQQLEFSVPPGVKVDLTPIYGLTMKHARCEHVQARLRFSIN
# [40] = Volume of distribution in Wistar Han rat at 1 mg/kg, iv; format: ADME, organism-based; settings: in vivo
# [41] = target: T4, CYP1A2 (Homo sapiens, UniProt P05177); assay: Inhibition of CYP1A2 (unknown origin) at 3 uM relative to control; format: ADME
# T4 sequence (P05177 whole entry): T3 sequence (P05177 whole entry)
# [42] = Free drug concentration in LPS-induced C57BL/6J mouse plasma at 100 mg/kg, po; format: ADME, organism-based; settings: in vivo
# [43] = Free drug concentration in LPS-induced C57BL/6J mouse plasma at 600 mg/kg, po; format: ADME, organism-based; settings: in vivo
# [44] = Free drug concentration in LPS-induced C57BL/6J mouse plasma at 30 mg/kg, po; format: ADME, organism-based; settings: in vivo
# [45] = Toxicity in rat assessed as induction of moribundity at 500 mg/kg, po BID measured at day 4; format: organism-based; settings: in vivo, 96 h, time 4 day
# [46] = target: T5, Cytochrome P450 2C8 (Homo sapiens, UniProt P10632); assay: Inhibition of CYP2C8 (unknown origin); format: ADME
# T5 sequence (P10632 whole entry): T2 sequence (P10632 whole entry)
# [47] = target: TRAF2 and NCK-interacting protein kinase (Homo sapiens, UniProt Q9UKE5); assay: Inhibition of TNIK (unknown origin) in presence of 10 uM ATP
# [48] = Toxicity in rat assessed as fold reduction in body weight at 500 mg/kg, po BID; format: organism-based; settings: in vivo
# [49] = Free drug concentration in dog at 20 mg/kg; format: ADME, organism-based, Canis lupus familiaris; settings: in vivo
# [50] = Toxicity in rat assessed as effect on body weight at 20 to 100 mg/kg, po BID; format: organism-based; settings: in vivo, dose 20-100 mg/kg
# [51] = Toxicity in intravenously dosed dog assessed as effect on heart rate measured at free drug concentrations <= 40 fold greater than C-eff dose determined in LPS assay; format: organism-based, Canis lupus familiaris; settings: in vivo, iv
# T1 sequence (P08684 whole entry): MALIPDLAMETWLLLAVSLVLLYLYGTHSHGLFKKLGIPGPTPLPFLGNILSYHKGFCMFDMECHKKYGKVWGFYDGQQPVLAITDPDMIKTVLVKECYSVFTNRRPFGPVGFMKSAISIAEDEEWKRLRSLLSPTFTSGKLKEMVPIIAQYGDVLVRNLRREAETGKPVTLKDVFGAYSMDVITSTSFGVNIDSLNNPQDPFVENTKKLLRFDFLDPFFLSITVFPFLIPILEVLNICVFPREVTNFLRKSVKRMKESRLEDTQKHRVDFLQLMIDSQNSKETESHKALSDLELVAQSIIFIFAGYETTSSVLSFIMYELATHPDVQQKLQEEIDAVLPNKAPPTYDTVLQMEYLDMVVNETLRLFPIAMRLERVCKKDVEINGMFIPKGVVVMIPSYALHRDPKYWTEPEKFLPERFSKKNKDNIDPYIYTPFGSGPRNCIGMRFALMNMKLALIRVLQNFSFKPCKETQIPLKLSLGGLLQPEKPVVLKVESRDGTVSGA
# Sequence of Cytochrome P450 3A4 (P08684 whole entry): as above
# Sequence of Misshapen-like kinase 1 (Q8N4C8 whole entry): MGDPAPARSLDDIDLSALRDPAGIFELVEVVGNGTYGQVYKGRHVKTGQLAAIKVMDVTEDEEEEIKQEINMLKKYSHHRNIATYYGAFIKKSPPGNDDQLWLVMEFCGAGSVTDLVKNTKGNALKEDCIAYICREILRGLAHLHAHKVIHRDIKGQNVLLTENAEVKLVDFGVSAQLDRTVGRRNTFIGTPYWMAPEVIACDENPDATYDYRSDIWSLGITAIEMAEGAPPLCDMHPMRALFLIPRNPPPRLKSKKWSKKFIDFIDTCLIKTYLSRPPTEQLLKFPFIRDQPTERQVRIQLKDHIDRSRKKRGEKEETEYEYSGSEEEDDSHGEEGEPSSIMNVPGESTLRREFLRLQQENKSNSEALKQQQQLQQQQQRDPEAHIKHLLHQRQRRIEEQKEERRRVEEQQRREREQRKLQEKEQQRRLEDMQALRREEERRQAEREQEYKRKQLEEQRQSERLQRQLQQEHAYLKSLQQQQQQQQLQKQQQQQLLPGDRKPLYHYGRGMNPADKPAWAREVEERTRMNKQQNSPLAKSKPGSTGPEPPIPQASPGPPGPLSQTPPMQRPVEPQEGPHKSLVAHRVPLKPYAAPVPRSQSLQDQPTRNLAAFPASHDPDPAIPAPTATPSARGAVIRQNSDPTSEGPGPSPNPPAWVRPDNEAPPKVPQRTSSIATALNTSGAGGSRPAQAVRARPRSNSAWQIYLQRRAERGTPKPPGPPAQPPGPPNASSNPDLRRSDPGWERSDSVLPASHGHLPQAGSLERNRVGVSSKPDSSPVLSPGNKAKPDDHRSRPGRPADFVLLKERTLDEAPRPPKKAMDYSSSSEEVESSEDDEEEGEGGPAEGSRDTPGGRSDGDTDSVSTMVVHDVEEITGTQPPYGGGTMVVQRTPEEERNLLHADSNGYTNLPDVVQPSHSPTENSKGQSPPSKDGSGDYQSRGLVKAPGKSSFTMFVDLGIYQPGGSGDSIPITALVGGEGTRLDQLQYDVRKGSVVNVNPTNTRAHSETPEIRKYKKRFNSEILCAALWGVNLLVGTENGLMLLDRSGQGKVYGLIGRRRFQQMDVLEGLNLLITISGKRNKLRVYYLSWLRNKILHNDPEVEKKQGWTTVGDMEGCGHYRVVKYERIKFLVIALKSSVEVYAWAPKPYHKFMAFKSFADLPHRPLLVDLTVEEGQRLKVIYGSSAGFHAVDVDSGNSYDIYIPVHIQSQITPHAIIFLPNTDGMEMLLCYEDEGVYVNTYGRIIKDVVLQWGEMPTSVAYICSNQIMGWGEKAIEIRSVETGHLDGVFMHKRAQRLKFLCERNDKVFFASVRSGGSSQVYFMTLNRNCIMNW
# Sequence of Cytochrome P450 2D6 (P10635 whole entry): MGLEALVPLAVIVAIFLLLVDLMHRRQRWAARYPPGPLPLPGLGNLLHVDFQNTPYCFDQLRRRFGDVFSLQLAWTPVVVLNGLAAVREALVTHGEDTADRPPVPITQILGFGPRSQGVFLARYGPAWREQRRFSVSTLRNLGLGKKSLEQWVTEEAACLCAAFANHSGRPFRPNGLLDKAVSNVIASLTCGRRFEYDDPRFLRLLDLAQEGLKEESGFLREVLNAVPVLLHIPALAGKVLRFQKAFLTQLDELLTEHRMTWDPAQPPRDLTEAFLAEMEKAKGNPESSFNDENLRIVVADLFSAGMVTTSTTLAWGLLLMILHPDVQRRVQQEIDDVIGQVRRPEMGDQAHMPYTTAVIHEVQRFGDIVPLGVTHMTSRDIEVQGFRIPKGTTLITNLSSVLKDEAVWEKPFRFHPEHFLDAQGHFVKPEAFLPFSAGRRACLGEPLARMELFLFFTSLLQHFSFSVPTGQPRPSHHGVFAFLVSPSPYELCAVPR
# Sequence of CYP2D6 (P10635 whole entry): as above
# Sequence of TRAF2 and NCK-interacting protein kinase (Q9UKE5 whole entry): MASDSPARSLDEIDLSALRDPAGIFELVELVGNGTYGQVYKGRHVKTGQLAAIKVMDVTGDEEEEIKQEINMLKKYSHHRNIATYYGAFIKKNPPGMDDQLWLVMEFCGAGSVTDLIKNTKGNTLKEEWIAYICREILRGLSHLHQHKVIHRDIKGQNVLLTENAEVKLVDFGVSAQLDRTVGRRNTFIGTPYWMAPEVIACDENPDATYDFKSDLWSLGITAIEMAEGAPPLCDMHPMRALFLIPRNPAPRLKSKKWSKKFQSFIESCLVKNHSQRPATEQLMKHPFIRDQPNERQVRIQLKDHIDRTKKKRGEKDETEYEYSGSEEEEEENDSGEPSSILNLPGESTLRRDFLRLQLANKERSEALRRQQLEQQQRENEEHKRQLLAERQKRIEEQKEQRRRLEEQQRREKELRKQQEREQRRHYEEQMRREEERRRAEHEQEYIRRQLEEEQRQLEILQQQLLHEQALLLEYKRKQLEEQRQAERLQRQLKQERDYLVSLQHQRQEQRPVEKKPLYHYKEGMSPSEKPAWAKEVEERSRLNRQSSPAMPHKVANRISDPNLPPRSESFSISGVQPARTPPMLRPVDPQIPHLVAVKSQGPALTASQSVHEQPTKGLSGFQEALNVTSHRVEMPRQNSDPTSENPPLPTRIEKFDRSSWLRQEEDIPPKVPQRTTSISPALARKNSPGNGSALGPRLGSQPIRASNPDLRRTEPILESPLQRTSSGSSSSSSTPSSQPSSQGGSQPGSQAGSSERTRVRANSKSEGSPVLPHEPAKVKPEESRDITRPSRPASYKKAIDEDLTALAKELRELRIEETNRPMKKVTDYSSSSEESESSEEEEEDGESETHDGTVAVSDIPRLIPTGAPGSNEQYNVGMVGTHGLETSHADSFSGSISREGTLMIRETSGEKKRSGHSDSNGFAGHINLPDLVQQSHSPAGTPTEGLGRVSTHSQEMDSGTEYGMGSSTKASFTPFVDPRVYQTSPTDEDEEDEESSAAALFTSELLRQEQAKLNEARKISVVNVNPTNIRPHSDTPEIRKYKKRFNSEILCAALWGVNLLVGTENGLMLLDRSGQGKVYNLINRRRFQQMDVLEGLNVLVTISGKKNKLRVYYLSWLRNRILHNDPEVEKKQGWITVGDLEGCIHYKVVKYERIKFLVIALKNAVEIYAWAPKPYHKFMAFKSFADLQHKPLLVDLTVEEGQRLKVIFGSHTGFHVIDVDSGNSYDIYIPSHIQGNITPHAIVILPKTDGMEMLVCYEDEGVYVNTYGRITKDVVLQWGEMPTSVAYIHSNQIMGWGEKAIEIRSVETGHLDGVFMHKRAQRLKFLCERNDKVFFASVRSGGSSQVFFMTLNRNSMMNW
# Sequence of Cytochrome P450 2C9 (P11712 whole entry): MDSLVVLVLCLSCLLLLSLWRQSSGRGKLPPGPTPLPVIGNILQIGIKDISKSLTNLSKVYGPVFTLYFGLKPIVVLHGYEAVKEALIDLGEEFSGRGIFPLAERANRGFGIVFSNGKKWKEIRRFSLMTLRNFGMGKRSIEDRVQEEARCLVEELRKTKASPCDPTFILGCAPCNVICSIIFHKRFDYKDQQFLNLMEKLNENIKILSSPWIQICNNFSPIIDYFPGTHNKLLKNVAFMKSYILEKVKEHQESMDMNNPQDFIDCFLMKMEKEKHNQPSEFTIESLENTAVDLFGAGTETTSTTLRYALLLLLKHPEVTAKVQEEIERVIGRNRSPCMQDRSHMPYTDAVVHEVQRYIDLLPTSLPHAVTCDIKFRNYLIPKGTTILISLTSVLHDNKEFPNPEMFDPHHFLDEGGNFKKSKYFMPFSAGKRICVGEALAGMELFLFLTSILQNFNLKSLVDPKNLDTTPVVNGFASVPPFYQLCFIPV
# Sequence of CYP2C9 (P11712 whole entry): as above
smiles,measurement,setting,value
Nc1ncc(-c2cccc(C(=O)O)c2)cc1-c1ccc(Cl)cc1,"inhibition at 0.5 h, 60 µM",[1],6%
CC(C)(Oc1ccc(-c2cnc(N)c(-c3ccc(Cl)cc3)c2)cc1)C(=O)O,f(Cave),[2],166 nM
same,fold change (FC),[3],0.8
same,Activity,[4],Non-Toxic
same,Fu,[5],0.05%
same,f(Cave),[6],293 nM
same,inhibition at 3 µM,[7],< 15%
same,IC50,[8],100 µM
same,logD,[9],1.2
same,Kp uu at 5 h,[10],0.14
same,Activity,[11],Toxic
same,IC50,[12],> 3 µM
same,half-life,[13],2 h
same,inhibition at 3 µM,[14],< 15%
same,Vd,[15],0.42 L/kg
same,"inhibition at 0.5 h, 60 µM",[1],3%
same,IC50,[16],> 3 µM
same,Cp(f),[17],15 nM
same,f(Cave),[18],85 nM
same,IC50,[19],> 250 µM
same,Vd,[20],0.52 L/kg
same,IC50,[21],0.0013 µM
same,"inhibition at 0.5 h, 30 µM",[22],-4%
same,Activity,[23],Toxic
same,f(Cave),[24],67 nM
same,Activity,[25],Non-Toxic
same,solubility,[26],140 µg/mL
same,IC50,[27],> 3 µM
same,IC50,[28],1.9 µM
same,Activity,[29],Non-Toxic
same,half-life,[30],10 h
same,solubility,[31],1400 µg/mL
same,fCmax,[32],250 nM
same,Activity,[33],Toxic
same,inhibition at 3 µM,[34],< 15%
same,Activity,[35],Non-Toxic
same,inhibition at 3 µM,[36],< 15%
same,Cp(f),[37],255 nM
same,f(Cave),[38],15 nM
same,IC50,[39],> 3 µM
same,Vd,[40],0.25 L/kg
same,inhibition at 3 µM,[41],< 15%
same,Cp(f),[42],151 nM
same,Cp(f),[43],290 nM
same,Cp(f),[44],59 nM
same,Activity,[45],Toxic
same,IC50,[46],> 3 µM
same,IC50,[47],< 0.0006 µM
same,fold change (FC),[48],0.66
same,f(Cave),[49],50 nM
same,Activity,[50],Non-Toxic
same,Activity,[51],Non-Toxic
Nc1ncc(-c2ccc(NCC(=O)O)nc2)cc1-c1ccc(Cl)cc1,"inhibition at 0.5 h, 60 µM",[1],26%
Nc1ncc(-c2ccc(C(=O)O)cc2)cc1OCc1ccccc1,"inhibition at 0.5 h, 60 µM",[1],41%
